IC50 data for 23 compounds are collected here from patent US20090093468A1, “Peptide Deformylase Inhibitors” (priority 2004, published 2009).

The structures appear in SMILES notation.

As usually defined, the IC50 is the concentration needed to halve the response being measured.

The target in experiment [1] is T1, bacterial PDF (peptide deformylase), enzyme from S. aureus (Staphylococcus aureus, UniProt P68826).
T1 sequence (P68826 1-183): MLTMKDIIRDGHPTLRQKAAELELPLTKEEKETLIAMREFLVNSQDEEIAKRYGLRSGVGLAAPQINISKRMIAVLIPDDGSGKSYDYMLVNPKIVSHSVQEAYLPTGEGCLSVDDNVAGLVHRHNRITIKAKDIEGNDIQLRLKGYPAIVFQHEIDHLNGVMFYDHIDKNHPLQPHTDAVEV
The experiment is described as follows: Bacterial peptide deformylase (PDF) assay, enzyme from S. aureus. Type of experiment: biochemical. To be noted: PDF enzyme from S. aureus; substrate f-Met-Ala; TNBS readout at 420 nm; read-out: IC50 (enzyme from S. aureus). The procedure:
(§1) The IC50 value of a compound of the invention as a bacterial PDF inhibitor was determined using the following assay.
(§2) Assay buffer (pH 7.2): 0.1 M MOPS pH was adjusted to 7.2 with NaOH, containing 0.25 M NaCl, 100 microgram/mL catalase and 1 mg/mL BSA.
(§3) Enzyme mix: 670 ng/mL of enzyme (to finally have 50 ng of enzyme per well).
(§4) Substrate: 10 mM f-Met-Ala was made up from 200 mM f-Met-Ala in methanol with assay buffer.
(§5) TNBS solution: Freshly dilute 1 M TNBS stock solution to 1:10 with water.
(§6) Buffer C: 0.5 M borate buffer adjusted to pH 9.5 with NaOH.
(§7) Buffer D: 0.2 ml of freshly prepared 0.5 M Na2SO3 was mixed with 9.8 mL of 0.5M NaH2PO4.
(§8) Inhibitor solution: 2 mM Sodium 4-(hydroxymercurio) benzoate in assay buffer.
(§9) The assay was performed in a 96 Microtiter plate containing test compound. To each well containing test compound mix was added 75 microliter of enzyme mix from E. coli followed, by the addition of 25 microliter of substrate mix. The resulting mix was incubated for 30 minutes at room temperature with shaking. TNBS solution (50 microliter/well) was added and the resulting mixture was incubated for 15 minutes under shaking. Buffer C was then added (20 microliter/well). After incubating at room temperature for 15 minutes under shaking, buffer D was added (50 microliter/well). The optical […] was then measured at 420 nm, thereby determining the IC50 value.
The assay was repeated using enzyme mix from S. aureus.

Experiment [2] concerns the target bacterial PDF (peptide deformylase), enzyme from E. coli (Escherichia coli, UniProt P0A6K3). The experiment is described as follows: Bacterial peptide deformylase (PDF) assay, enzyme from E. coli. Type of experiment: biochemical. As to the method: as §1, §2, §3, §4, §5, §6, §7, §8, §9

Sequence of bacterial PDF (peptide deformylase), enzyme from E. coli (P0A6K3 whole entry): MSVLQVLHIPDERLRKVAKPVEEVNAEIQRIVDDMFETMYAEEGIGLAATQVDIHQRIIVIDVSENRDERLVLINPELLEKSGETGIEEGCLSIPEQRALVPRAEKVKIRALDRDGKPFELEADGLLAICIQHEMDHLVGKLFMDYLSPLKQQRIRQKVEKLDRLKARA

For the compound `O=C(CC1CNc2ccccc2S1)NO` (stereo not drawn) [Example 1, 2-(3,4-Dihydro-2H-benzo[1,4]thiazin-2-yl)-N-hydroxy-acetamide], the IC50 in experiment [1] stood at 37.6 µM; in experiment [2], 56.7 µM.
Regarding `O=C(CC1CNc2ccccc2S1(=O)=O)NO` (stereo not drawn) [Example 2, 2-(1,1-Dioxo-1,2,3,4-tetrahydro-1λ^6-benzo[1,4]thiazin-2-yl)-N-hydroxy-acetamide], the IC50 in experiment [1] came to 1.5 µM; in experiment [2] it was 3.4 µM.
In the case of `CCN1CC(CC(=O)NO)Sc2ccccc21` (stereo not drawn) [Example 3, 2-(4-Ethyl-3,4-dihydro-2H-benzo[1,4]thiazin-2-yl)-N-hydroxy-acetamide], the IC50 in experiment [1] amounted to 5.6 µM; in experiment [2], 2.6 µM.
For `CCN1CC(CC(=O)NO)S(=O)(=O)c2ccccc21` (stereo not drawn) [Example 4, 2-(4-Ethyl-1,1-dioxo-1,2,3,4-tetrahydro-1λ^6-benzo[1,4]thiazin-2-yl)-N-hydroxy-acetamide], the IC50 in experiment [1] amounted to 2 µM; in experiment [2] it was 1.4 µM.
As for `CCCN1CC(CC(=O)NO)Sc2ccccc21` (stereo not drawn) [Example 5, N-Hydroxy-2-(4-propyl-3,4-dihydro-2H-benzo[1,4]thiazin-2-yl)-acetamide], the IC50 in experiment [1] is 8.5 µM; in experiment [2], 7 µM.
For the compound `CCCN1CC(CC(=O)NO)S(=O)(=O)c2ccccc21` (stereo not drawn) [Example 6, 2-(1,1-Dioxo-4-propyl-1,2,3,4-tetrahydro-1λ^6-benzo[1,4]thiazin-2-yl)-N-hydroxy-acetamide], the IC50 came to 1.9 µM in experiment [1] and 1.6 µM in experiment [2].
Take `CCCCN1CC(CC(=O)NO)Sc2ccccc21` (stereo not drawn) [Example 7, 2-(4-Butyl-3,4-dihydro-2H-benzo[1,4]thiazin-2-yl)-N-hydroxy-acetamide]: the values for the IC50 in experiment [1] and in experiment [2] were 35.5 µM and 22 µM, respectively.
For `CCCCN1CC(CC(=O)NO)S(=O)(=O)c2ccccc21` (stereo not drawn) [Example 8, 2-(4-Butyl-1,1-dioxo-1,2,3,4-tetrahydro-1λ^6-benzo[1,4]thiazin-2-yl)-N-hydroxy-acetamide], in that order: 8.1 µM and 8.8 µM.
For the compound `O=C(CC1CN(Cc2ccccc2)c2ccccc2S1(=O)=O)NO` (stereo not drawn) [Example 9, 2-(4-Benzyl-1,1-dioxo-1,2,3,4-tetrahydro-1λ^6-benzo[1,4]thiazin-2-yl)-N-hydroxy-acetamide], the IC50 worked out at 21.4 µM in experiment [1] and 21.2 µM in experiment [2].
The matching figures for `O=C(CC1CN(Cc2cccc(F)c2)c2ccccc2S1(=O)=O)NO` (stereo not drawn) [Example 10, 2-[4-(3-Fluoro-benzyl)-1,1-dioxo-1,2,3,4-tetrahydro-1λ^6-benzo[1,4]thiazin-2-yl]-N-hydroxy-acetamide]: 28.4 µM and 27.7 µM.
For `CCN1CC(CC(=O)NO)S(=O)(=O)c2ccc(C(=O)NCc3ccccc3)cc21` (stereo not drawn) [Example 11, 4-Ethyl-2-hydroxycarbamoylmethyl-1,1-dioxo-1,2,3,4-tetrahydro-1λ^6-benzo[1,4]thiazine-6-carboxylic acid benzylamide], the values for the IC50 in experiment [1] and in experiment [2] were 8.9 µM and 17.6 µM, respectively.
For `CCN1CC(CC(=O)NO)S(=O)(=O)c2ccc(C(=O)NCc3ccccc3F)cc21` (stereo not drawn) [Example 12, 4-Ethyl-2-hydroxycarbamoylmethyl-1,1-dioxo-1,2,3,4-tetrahydro-1λ^6-benzo[1,4]thiazine-6-carboxylic acid 2-fluoro-benzylamide], the IC50 turned out to be 36.8 µM in experiment [1] and 10.8 µM in experiment [2].
As to `CCN1CC(CC(=O)NO)S(=O)(=O)c2ccc(C(=O)NCc3cccc(F)c3)cc21` (stereo not drawn) [Example 13, 4-Ethyl-2-hydroxycarbamoylmethyl-1,1-dioxo-1,2,3,4-tetrahydro-1λ^6-benzo[1,4]thiazine-6-carboxylic acid 3-fluoro-benzylamide], the IC50 in experiment [1] was found to be 13.7 µM; in experiment [2], 11.7 µM.
With `CCN1CC(CC(=O)NO)S(=O)(=O)c2ccc(C(=O)NCc3ccc(F)cc3)cc21` (stereo not drawn) [Example 14, 4-Ethyl-2-hydroxycarbamoylmethyl-1,1-dioxo-1,2,3,4-tetrahydro-1λ^6-benzo[1,4]thiazine-6-carboxylic acid 4-fluoro-benzylamide], the IC50 in experiment [1] stood at 10 µM; in experiment [2], 10.5 µM.
With `CCN1CC(CC(=O)NO)S(=O)(=O)c2ccc(C(=O)NCc3ccccc3Br)cc21` (stereo not drawn) [Example 15, 4-Ethyl-2-hydroxycarbamoylmethyl-1,1-dioxo-1,2,3,4-tetrahydro-1λ^6-benzo[1,4]thiazine-6-carboxylic acid 2-bromo-benzylamide], the IC50 came to 9.6 µM in experiment [1] and 20 µM in experiment [2].
Consider `CCN1CC(CC(=O)NO)S(=O)(=O)c2ccc(C(=O)NCc3cccc(Br)c3)cc21` (stereo not drawn) [Example 16, 4-Ethyl-2-hydroxycarbamoylmethyl-1,1-dioxo-1,2,3,4-tetrahydro-1λ^6-benzo[1,4]thiazine-6-carboxylic acid 3-bromo-benzylamide], for which the IC50 in experiment [1] is 9.7 µM; in experiment [2], 2 µM.
Regarding `CCN1CC(CC(=O)NO)S(=O)(=O)c2ccc(C(=O)NCc3ccc(Br)cc3)cc21` (stereo not drawn) [Example 17, 4-Ethyl-2-hydroxycarbamoylmethyl-1,1-dioxo-1,2,3,4-tetrahydro-1λ^6-benzo[1,4]-thiazine-6-carboxylic acid 4-bromo-benzylamide], the IC50 in experiment [1] is 3.4 µM; in experiment [2] it was 1.5 µM.
On to `CCN1CC(CC(=O)NO)S(=O)(=O)c2ccc(C(=O)NCc3ccccc3[N+](=O)[O-])cc21` (stereo not drawn) [Example 18, 4-Ethyl-2-hydroxycarbamoylmethyl-1,1-dioxo-1,2,3,4-tetrahydro-1λ^6-benzo[1,4]thiazine-6-carboxylic acid 2-nitro-benzylamide], for which the IC50 in experiment [1] is 11.3 µM; in experiment [2], 17.6 µM.
As for `CCN1CC(CC(=O)NO)S(=O)(=O)c2ccc(C(=O)NCc3cccc([N+](=O)[O-])c3)cc21` (stereo not drawn) [Example 19, 4-Ethyl-2-hydroxycarbamoylmethyl-1,1-dioxo-1,2,3,4-tetrahydro-1λ^6-benzo[1,4]thiazine-6-carboxylic acid 3-nitro-benzylamide], the IC50 came out at 11.9 µM in experiment [1] and 3.3 µM in experiment [2].
Take `CCN1CC(CC(=O)NO)S(=O)(=O)c2ccc(C(=O)NCc3ccc([N+](=O)[O-])cc3)cc21` (stereo not drawn) [Example 20, 4-Ethyl-2-hydroxycarbamoylmethyl-1,1-dioxo-1,2,3,4-tetrahydro-1λ^6-benzo[1,4]thiazine-6-carboxylic acid 4-nitro-benzylamide]: the IC50 stood at 3.9 µM in experiment [1] and 1.2 µM in experiment [2].
For `CCN1CC(CC(=O)NO)S(=O)(=O)c2ccc(C(=O)NCc3ccccc3OC)cc21` (stereo not drawn) [Example 21, 4-Ethyl-2-hydroxycarbamoylmethyl-1,1-dioxo-1,2,3,4-tetrahydro-1λ^6-benzo[1,4]thiazine-6-carboxylic acid 2-methoxy-benzylamide], in that order: 1.5 µM and 1.5 µM.
Consider `CCN1CC(CC(=O)NO)S(=O)(=O)c2ccc(C(=O)NCc3cccc(OC)c3)cc21` (stereo not drawn) [Example 22, 4-Ethyl-2-hydroxycarbamoylmethyl-1,1-dioxo-1,2,3,4-tetrahydro-1λ^6-benzo[1,4]thiazine-6-carboxylic acid 3-methoxy-benzylamide], for which the IC50 was 2.3 µM in experiment [1] and 1 µM in experiment [2].
Regarding `CCN1CC(CC(=O)NO)S(=O)(=O)c2ccc(C(=O)NCc3ccc(C(F)(F)F)cc3)cc21` (stereo not drawn) [Example 25, 4-Ethyl-2-hydroxycarbamoylmethyl-1,1-dioxo-1,2,3,4-tetrahydro-1λ^6-benzo[1,4]thiazine-6-carboxylic acid 4-trifluoromethyl-benzylamide], the IC50 in experiment [1] turned out to be 4.2 µM.
